Activity calls are given as the source filed them. The calls are words filed in the database; no cut-off is given here.
Key:
C6 = test: Antitumor activity against rat C6 cells transplanted to rat assessed as reduction in tumor growth at 8 mg/kg, intra-tumor treated after 1 week of tumor injection measured up to 15 days relative to untreated control; assay type: functional, organism-based; set-up: dose 8 mg/kg
[1] = Antiproliferative activity against human […] cells assessed as inhibitory activity measured after 36 hrs by [3H]thymidine incorporation assay; assay type: functional; conditions: read-out: ID50 (the source's name)
[2] = Antiproliferative activity against human […] cells assessed as Human Bcl-x beta gene repression at IC50 concentration after 24 hrs by microarray analysis relative to control; assay type: functional
[3] = Antiproliferative activity against human […] cells assessed as Solute carrier family 4, anion exchanger, member 2 (erythrocyte membrane protein band 3-like 1) gene repression at IC50 concentration after 24 hrs by microarray analysis relative to control; assay type: functional
[4] = Antiproliferative activity against human […] cells assessed as Human epsilon 14-3-3 protein gene repression at IC50 concentration after 24 hrs by microarray analysis relative to control; assay type: functional
[5] = Antiproliferative activity against human […] cells assessed as Tumor protein p53 gene repression at IC50 concentration after 24 hrs by microarray analysis relative to control; assay type: functional
[6] = Antiproliferative activity against human […] cells assessed as Rho GDP dissociation inhibitor (GDI) alpha gene repression at IC50 concentration after 24 hrs by microarray analysis relative to control; assay type: functional

Row | Structure (SMILES) | Activity (C6) | IC50 [1] [µM] | fold change (FC) [2] | fold change (FC) [3] | fold change (FC) [4] | fold change (FC) [5] | fold change (FC) [6]
1 | CCCCCCCCCCCCCCCCO[C@H]1O[C@H](COCC(O)CO)[C@@H](O)[C@H](O)[C@H]1NC(=O)CCCC (some centres not stated) | inactive | 4.6 | – | – | – | – | –
2 | CCCCCCCCO[C@H]1O[C@H](COCC(CO)(CO)CO)[C@@H](O)[C@H](O)[C@H]1NC(C)=O | – | 180 | 0.3 | 0.7 | 0.5 | 0.5 | 0.3
3 | CCCCCCCCCCCCCCCCO[C@H]1O[C@H](CO)[C@@H](O)[C@H](O)[C@H]1NC(C)=O | inactive | 13 | – | – | – | – | –
4 | CCCCCCCCCCCCCCCCO[C@H]1O[C@H](COCC(CO)(CO)COS(=O)(=O)O)[C@@H](O)[C@H](O)[C@H]1NC(=O)CCCC | Active | 3.2 | – | – | – | – | –

— ChEMBL document CHEMBL2331180, “Synthetic glycolipids for glioma growth inhibition developed from neurostatin and NF115 compound” (2013)
